Patent US20250136641A1, “PEPTIDES AND COMPOSITIONS FOR USE IN COSMETICS, FOOD AND MEDICINE” (priority 2022, published 2025)
Ends that are not written are not given here.

What was measured:
catalase = assay: Levels or synthesis of catalase enzyme in HEKa cells (ELISA); format: cell-based, human; settings: 24 hours
Nrf2 = assay: Subcellular localization of Nrf2 in HEKa cells (immunofluorescence); format: cell-based, human; settings: 0.01 or 0.05 mg/mL peptide, 24 hours, vs untreated cells
TRF1 [1] = assay: TRF1 foci per cell in HEKa cells (immunofluorescence); format: cell-based, human; settings: basal condition, 0.005 mg/mL peptide, vs untreated
[2] = tested on: inflammation-related genes; assay: Expression of inflammation-related genes (RT-qPCR) in HEKa cells; format: cell-based, human; settings: 0.01 mg/mL peptide, vs untreated basal sample
IL-8 = IL-8 secretion by HaCaT keratinocytes (ELISA), with or without IFNγ; format: cell-based, human
HDFa73 (HDFa from adult) = assay: Telomere length in HDFa cells (qPCR); format: cell-based, human; settings: 48 hours
TLR2 = TLR2 levels in human epidermal keratinocytes after IFNγ (ELISA); format: cell-based
TRF1 [3] = assay: TRF1 levels in CHA9.3 cells (immunofluorescence); format: cell-based; settings: 0.125 mg/mL peptide, 24-hour incubation, vs DMSO control
53BP1 = assay: DNA damage (53BP1 foci) under oxidative stress in HEKa cells; format: cell-based, human; settings: 100 μM H2O2, 0.01 or 0.05 mg/mL peptide, vs cells treated only with H2O2
[4] = tested on: inflammation-related miRNAs; assay: Expression of inflammation-related miRNAs (RT-qPCR) in HEKa cells; format: cell-based, human; settings: 0.01 mg/mL peptide, 24 h, vs untreated basal sample

Substance: GYYELND-NH2 [SEQ ID NO: 2-NH2]
- levels of catalase (catalase; HEKa cells, 0.005, 0.01 or 0.05 mg/mL peptide, catalase/total protein vs basal): increase the levels of catalase in a dose-dependent manner
- increase in levels of catalase (catalase; HEKa cells, highest concentration (0.05 mg/mL), vs basal): 47%
- Nrf2 translocation into the nuclei (Nrf2): Nrf2 translocation from the cytoplasm to the nuclei in a concentration dependent manner
- TRF1 foci per cell (TRF1 [1]): increase in TRF1
- HMOX1 gene expression ([2]; 6 h): upregulation
- IRAK3 gene expression ([2]; 6 h): upregulation
- TNFAIP3 gene expression ([2]; 6 h): upregulation
- TOLLP gene expression ([2]; 6 h): upregulation
- CXCL8 gene expression ([2]; 24 h): downregulated
- IL1B gene expression ([2]; 24 h): downregulated
- IL6 gene expression ([2]; 24 h): downregulated
- MMP3 gene expression ([2]; 24 h): downregulated
- NFKB1 gene expression ([2]; 24 h): downregulated
- NQO1 gene expression ([2]; 24 h): upregulated
- TLR2 gene expression ([2]; 24 h): downregulated
- TNF gene expression ([2]; 24 h): downregulated
- secretion of IL-8 under inflammatory conditions (IL-8; 48 hours, 0.005, 0.01 or 0.05 mg/mL together with IFNγ at 10 ng/mL, compared to positive control (IFNγ alone)): decrease, in a dose-dependent manner
- secretion of IL-8 under basal conditions (IL-8; without IFNγ, all concentrations tested (SEQ ID NO: 2-NH2 0.005, 0.01, 0.05 mg/mL; SEQ ID NO: 3-NH2 0.01, 0.05 mg/mL), vs untreated cells): decreased the secretion of IL-8 in a dose-dependent manner but at a lower degree that under inflammatory conditions
- telomeres longer than untreated HDFa73 (HDFa73 (HDFa from adult); 0.005 mg/mL peptide): 17%
- telomeres longer than untreated HDFa73 (HDFa73 (HDFa from adult); 0.01 mg/mL peptide): 30%
- decrease in levels of TLR2 (TLR2; HEKa cells after IFNγ, highest peptide concentration (0.05 mg/mL), 24 hours): 19%
- levels of TLR2 (TLR2; HEKa cells, 24 hours 10 ng/mL IFNγ, then 0.01 or 0.05 mg/mL peptide for 24 hours): lower the levels of TLR2 after exposure to IFNγ in a dose dependent-manner
- TRF1 intensity (TRF1 [3]): increase in TRF1
- 53BP1 foci per cell (53BP1): decrease in 53BP1 foci
- miR-21-5p expression [4]: upregulate
- miR-146a-5p expression [4]: upregulate
